This is an account of results in publication PMC9097457 (The Journal of Biological Chemistry, 2022).

Molecules are shown by their SMILES.

Data set [1] relates to mitochondrial polymerase γ. Conditions: cited from earlier work.
The test system of data set [2] is isolated rat heart. Put plainly: Breakdown of the [3H]-parent compound in the perfusate of the isolated perfused rat heart. Conditions: 0.5 μM [3H]-dG alone. It is filed as in vitro ADME. On the procedure:
To determine the degree of phosphorylation in a whole tissue, which would include the activity of the cytosolic dCK, we utilized an isolated rat heart Langendorff retrograde perfusion model.
See text for details. […] See text for details.
Perfused hearts were snap frozen into wafers by clamping the heart in liquid nitrogen, and the frozen tissue wafers were stored in −80 °C until processed as previously described for ([24]) UPLC analysis.

Data set [3] has as its target T1, deoxyguanosine kinase (dGK) (Rattus norvegicus, UniProt A0A0G2K478).
T1 sequence (A0A0G2K478 with tags, fused parts or gaps): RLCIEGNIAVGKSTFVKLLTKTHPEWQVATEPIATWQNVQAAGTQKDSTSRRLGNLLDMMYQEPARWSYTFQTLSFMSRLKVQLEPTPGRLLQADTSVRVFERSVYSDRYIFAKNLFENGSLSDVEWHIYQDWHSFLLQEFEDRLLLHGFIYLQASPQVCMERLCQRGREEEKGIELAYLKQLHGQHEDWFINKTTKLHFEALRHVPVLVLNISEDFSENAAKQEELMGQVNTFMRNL
The data set is described as follows: Kinetic analysis of [3H]-dG and [3H]-ETV phosphorylation and cross inhibition in heart mitochondria. The format is biochemical. Conditions: absence of ETV, data of Figure 4. As to the method: (§1) To measure and compare phosphorylation and kinetics, a stable substrate concentration was necessary and EHNA (5 μM) ([50]) and I-H (2.0 μM) ([49]) were added to all mitochondrial incubations. […] The mitochondria were incubated in vitro for up to 2 h at 37 °C in a shaker bath. At the end of the incubation, reactions were terminated by addition of 10% TCA to an equal volume of incubation mixture (175 μl) and spun in a microcentrifuge to remove precipitates. The supernatant was neutralized with AG 11 A8 resin and filtered through a […] nylon syringe filter. The neutralized and filtered supernatants were analyzed by ultra high pressure liquid chromatography (UPLC). Radioactivity was determined from aliquots of each sample and processed through a Beckman Coulter multipurpose liquid scintillation counter (model 6500).
(§2) The radioactivity in each of these peaks was quantitated and totaled to provide the total amount of radioactivity in the phosphorylated products for each labeled precursor. This total was divided by the specific radioactivity of the precursor and expressed as pmol/mg protein/hr. The Kms were calculated from Lineweaver–Burk plots 1/Vo=Km/Vmax[S]+1/Vmax

The target in data set [4] is T1, deoxyguanosine kinase (dGK). The data set is described as follows: Tissue-specific phosphorylation of [3H]-dG, [3H]-dA and [3H]-ETV in isolated mitochondria. The format is biochemical. Conditions: 2 h; for dG converted to phosphorylated products: 1 μM. As to the method: As noted in the Experimental procedures, these were added together to determine total phosphorylation.
as §1
Extent of phosphorylation was measured and analyzed by UPLC (Agilent 1290) with a reverse-phase C18 column (Zorbax Eclipse Plus C18; 3.0 × 150 mm, 1.8 micron) coupled with an inline diode array to detect UV signal at 254 nm and to an inline liquid scintillation counter (β-Ram) to quantitate radioactivity.
as §2

The target is the same in data set [5]. The data set is described as follows: Inhibition of [3H]-dA phosphorylation by competing deoxynucleosides in liver mitochondria. The format is biochemical. Conditions: IC50 values at 1 μM substrate. On the procedure: as §1, §2
Data set [6] concerns isolated rat heart. Put plainly: Phosphorylation of [3H]-ETV, [3H]-dG and [3H]-dA in the isolated perfused rat heart (Langendorff). Conditions: 60-min perfusion. As to the method:
The phosphorylation of [^3H]-dG, [^3H]-dA, and [^3H]-ETV in isolated mitochondria depends on the activity of the mitochondrial dGK. To determine the degree of phosphorylation in a whole tissue, which would include the activity of the cytosolic dCK, we utilized an isolated rat heart Langendorff retrograde perfusion model. The breakdown and phosphorylation of [^3H]-ETV, [^3H]-dG, and [^3H]-dA (0.5 μM each) was measured in the perfusates and in the hearts after 60 min of perfusion (Fig. 9, A and B). […] However, the heart was still able to take up and maintain a small amount of dG to generate 0.18 ± 0.05 pmol/mg wet heart of phosphorylated dG during the 60-min perfusion. […] Despite the loss of [^3H]-dA from the perfusate, the heart took up and maintained enough dA to produce 0.48 ± 0.08 pmol/mg wet heart of phosphorylated [^3H]-dA products at 60 min (Fig. 9B). […] Note that [^3H]-dG and [^3H]-dG catabolites equilibrate rapidly between the perfusion buffer and the heart, while the phosphorylated forms of [^3H]-dG are retained solely in the heart tissue.
Figure 9 [^3H]-ETV and [^3H]-dG phosphorylation in a perfused rat heart. Rat hearts were removed and perfused using the Langendorff method for 1 h as described in Experimental procedures with 0.5 μM [^3H]-ETV, 0.5 μM [^3H]-dG), or 0.5 μM [^3H]-dA. […] A, the amount of exogenous [^3H]-parent compound in the perfusate as a function of time, plotted as a box plot of three independent experiments. See text for details. B, the amount of phosphorylated [^3H]-ETV, [^3H]-dG, or [^3H]-dA in the heart tissue after 60 min of perfusion with additions as noted in (A). See text for details.
Rat hearts were perfused by Langendorff retrograde perfusion apparatus with [^3H]-dG, [^3H]-dA, or [^3H]-ETV for 60 min under the conditions previously described ([25], [26], [51]). Perfused hearts were snap frozen into wafers by clamping the heart in liquid nitrogen, and the frozen tissue wafers were stored in −80 °C until processed as previously described for ([24]) UPLC analysis.

In data set [7] the target is T2, purine nucleoside phosphorylase (PNP) (Rattus norvegicus, UniProt P85973).
T2 sequence (P85973 1-289): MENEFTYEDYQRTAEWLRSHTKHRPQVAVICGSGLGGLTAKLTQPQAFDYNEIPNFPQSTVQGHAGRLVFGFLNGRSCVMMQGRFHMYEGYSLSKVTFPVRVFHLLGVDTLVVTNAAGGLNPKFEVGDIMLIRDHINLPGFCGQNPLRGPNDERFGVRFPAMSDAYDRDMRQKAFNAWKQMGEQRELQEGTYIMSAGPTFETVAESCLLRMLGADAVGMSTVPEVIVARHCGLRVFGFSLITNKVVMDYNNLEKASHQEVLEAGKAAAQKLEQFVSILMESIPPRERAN
Procedure: To measure and compare phosphorylation and kinetics, a stable substrate concentration was necessary and EHNA (5 μM) ([50]) and I-H (2.0 μM) ([49]) were added to all mitochondrial incubations. […] The mitochondria were incubated in vitro for up to 2 h at 37 °C in a shaker bath. At the end of the incubation, reactions were terminated by addition of 10% TCA to an equal volume of incubation mixture (175 μl) and spun in a microcentrifuge to remove precipitates. The supernatant was neutralized with AG 11 A8 resin and filtered through a 0.2-μM nylon syringe filter. The neutralized and filtered supernatants were analyzed by ultra high pressure liquid chromatography (UPLC). Radioactivity was determined from aliquots of each sample and processed through a Beckman Coulter multipurpose liquid scintillation counter (model 6500).

A further data set concerns heart mitochondria. The data set is described as follows: Conversion of [3H]-dGMP to [3H]-dGTP in isolated heart mitochondria. It is filed as biochemical, rat. Conditions: 1 μM precursor. As to the method:
Thus, we were interested in determining if the dGTP and dATP phosphorylation pathway in isolated mitochondria functioned similarly.
[^3H]-dGMP (1 μM) or [^3H]-dAMP (1 μM) was incubated in heart mitochondria as described for Figure 1 for the times shown, and their conversion to [^3H]-dGTP and [^3H]-dATP, respectively, determined in the presence and absence of Ap5A ([…]), a competitive inhibitor of adenylate kinase. Data are shown as a box plot of two independent experiments. The thickness of the lines indicates the spread of the duplicates. Ap5A, P1,P5-di(adenosine-5) pentaphosphate pentasodium salt.
as §1

Data set [8] deals with T1, deoxyguanosine kinase (dGK). The data set is described as follows: Kinetic analysis of [3H]-dA phosphorylation in the presence of dG or ETV in liver mitochondria. It is filed as biochemical. As to conditions: 0.12 μM inhibitor, 4 μM dA. As to the method:
as §1

In the case of `C=C1C(COP(=O)(O)OP(=O)(O)OP(=O)(O)O)C(O)CC1n1cnc2c(=O)[nH]c(N)nc21` (stereo not drawn) [ETV-triphosphate], the “recognition by mitochondrial polymerase γ” value in data set [1] is on record as “not recognized”.
Take `Nc1nc2c(ncn2[C@H]2C[C@H](O)[C@@H](CO)O2)c(=O)[nH]1` [dG, deoxyguanosine]: in the data set with isolated rat heart [2], the “parent compound in the perfusate by 60 min” value is on record as “nearly completely converted to catabolites”; the “parent compound in the perfusate within 3 min” value is given as 25 ± 8.8%; the “parent compound in the perfusate, initial level” value stood at 86.8 ± 0.7%. The “rate of [3H]-dG phosphorylation to [3H]-dGTP, control” value in data set [3] was 45.9 ± 1.8 pmol/mg protein/hr. For the same molecule, the “dG phosphorylated more readily than dA” value in data set [4] (1 μM each, brain, heart, kidney, liver mitochondria) came to 10 fold. For the same molecule, in data set [4] (heart mitochondria), the “dG converted to phosphorylated products” value is 30 pmol/mg mitochondrial protein. In data set [4] (liver mitochondria), the “dG converted to phosphorylated products” value is recorded as 60 pmol/mg mitochondrial protein. The “inhibition of dA phosphorylation more potent than ETV inhibition of dG phosphorylation” value in data set [5] is on record as 500 fold. Moreover, the “phosphorylated [3H]-dG in heart” value in the data set on isolated rat heart [6] (0.5 μM [3H]-dG + I-H 2 μM (legend: + I-H and EHNA)) was 0.57 ± 0.08 pmol/mg wet heart. Moreover, in the data set on isolated rat heart [6] (0.5 μM labeled compound alone), the “phosphorylated product in heart” value came to 0.18 ± 0.05 pmol/mg wet heart. The “stability in heart mitochondria” value in [7] (heart mitochondria, initial studies) is on record as “stable”. The “conversion of [3H]-dG to breakdown products” value in data set [7] (kidney mitochondria, 60 min, no inhibitor) stood at 22%. Moreover, the “conversion to [3H]-dGTP at the 30-min time point” value with heart mitochondria was found to be 22.4 ± 0.8 pmol/mg protein. In addition, in data set [8], the “inhibition of dA phosphorylation” value is listed as “nearly completely inhibited”.
